# Measured values as given in patent US20080039532A1, “Compounds For Specific Viral Target” (priority 2004, published 2008).
# Values joined by “and” are separate entries in the source; they are usually repeats but may differ in a detail not shown here. Equal values may be shown once. Ends that are not written are not given here. linker‑R1‑R2‑M = not defined here
# How the values were obtained:
# HIV-1 Strain IIIB = experiment: Determination of IC-50 of antiviral drugs by reverse transcriptase assay in PHA-stimulated CBMC; type: cell-based; details: for RT Results (cpm) (Day 7): +drugs 7 days, replicate columns; for anti-HIV activity (inhibition of reverse-transcriptase activity of HIV-1) as compared to native C34: standard in vitro assay
# Method: Determination of IC-50 for Assessing the Activity of Antiviral Drugs Using HIV-1 Strain IIIB
# The assay is performed in a 96-well plate with 500,000 PHA-stimulated CBMC (cord blood mononuclear cells) per well, 2 wells per drug concentration, with a minimum of 6 concentrations per drug. Media used is RPMI 1640 with 10% FBS, penicilin (100 U/ml), streptomycine (100 μg/ml), glutamine (2 mM), hydrocortisone (5 μg/ml), and IL-2 (20 U/ml).
# Control drug stocks are prepared by adding 2 ml of buffer to the native compounds or the reactive compounds. The stocks are stored at −20 degrees Celsius. The drug concentrations were determined by ConjuChem Inc. [drawing 76] Addition of the Compound Prior to Cell Infection
# Target cells are incubated with different compounds concentrations for 30-60 minutes at 37 degrees Celsius prior to addition of virus (multiplicity of infection (MOI)=0.1-1.0). Following plating, target cells are in the continuous presence of the different concentrations of inhibitor for a total of 7 days.
# Following 3-4 days of incubation, each compound is replenished.
# Reverse transcriptase assay is used to measure the IC50.
# CC50 (cytotoxic concentration) is also evaluated for all compounds.
# 3TC is used as a control inhibitor
# [1] = target: N36 peptide (CJC-1592) derived from the N-heptad repeat of HIV-1's gp41 glycoprotein (Human immunodeficiency virus type 1 group M subtype B, UniProt P04578); details: 1 hour incubation at room temperature; 17.5% acrylamide; compared to native C34
# Method: Following the 1 hour incubation at room temperature, at least 20 micrograms of total N36/C34 peptide mixture were loaded into each well and separated using Native-polyacrylamide gel electrophoresis (17.5% acrylamide) and stained using Coomassie Brilliant Blue. Unlike SDS-PAGE, Native-PAGE allows one to visualize the formation of six-helix bundles at approximately 28 kDa composed of three central N36 peptides surrounded by three C34 peptides. The formation of this structure and its analogs among other viruses is critical to the subsequent membrane fusion events.
Substance,RT Results (cpm) (Day 7) (HIV-1 Strain IIIB; Conc 125 nm),RT Results (cpm) (Day 7) (HIV-1 Strain IIIB; Conc 600 nm),RT Results (cpm) (Day 7) (HIV-1 Strain IIIB; Conc 3000 nm),"efficiency of the binding element in binding to its viral target, compared to native C34 (HIV-1 Strain IIIB; inferred from anti-HIV activity, N-heptad repeat of HIV-1's gp41)",anti-HIV activity (inhibition of reverse-transcriptase activity of HIV-1) as compared to native C34 (HIV-1 Strain IIIB),binding of C34 derivative to N36 peptide on Native-PAGE [1]
SEQ ID NO: 32: C34 with linker-R1-R2-M inserted at position Asp5 (Ac-WMEWK(linker‑R1‑R2‑M)REINNYTSLIHSLIEESQNQQERNEQELL; not fully specified; reading uncertain),6322 cpm and 6929 cpm and 5909 cpm,6477 cpm and 11889 cpm and 6030 cpm,7967 cpm and 5896 cpm and 6208 cpm,as efficient in binding to its viral target as native C34,as effectively as the native C34,does not impede C34 from binding to its target N36 peptide
"SEQ ID NO: 93: native (unreactive, non-covalent) version of C34 (Ac-WMEWDREINNYTSLIHSLIEESQNQQERNEQELL) [reference compound]",5854 cpm and 5040 cpm and 5219 cpm,4924 cpm and 5850 cpm and 5093 cpm,5811 cpm and 6955 cpm and 5973 cpm,,essentially no loss in anti-HIV activity,
